Assays:
Assay type in all cases: biochemical
CDK4/cyclin D1 = CDK4/cyclin D1 (Homo sapiens (Human), UniProt P11802); experiment: CDK4/Cyclin D1 enzymatic activity assay (Lance TR-FRET); conditions: Table 2; 3 μM ATP; read-out: CDK4
In short: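 IC50 from a TR-FRET endpoint read of phospho-pRb(S780) after EDTA quench. Reaction: 60 min, room temperature, 3 μM ATP, 175 nM pRb152 substrate, 0.3 nM Sf21-derived His6-CDK4/GST-cyclin D1, pH 7.5 HEPES with MgCl2/MnCl2, 2% DMSO, inhibitor 0.005-10 μM.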

CDK1/cyclin B = CDK1/cyclin B (Homo sapiens (Human), UniProt P06493); experiment: CDK1/Cyclin B enzymatic activity assay (IMAP-FP); conditions: Table 2; 20 μM ATP; read-out: CDK1
CDK1/cyclin B, sequence (P06493 whole entry, species assumed): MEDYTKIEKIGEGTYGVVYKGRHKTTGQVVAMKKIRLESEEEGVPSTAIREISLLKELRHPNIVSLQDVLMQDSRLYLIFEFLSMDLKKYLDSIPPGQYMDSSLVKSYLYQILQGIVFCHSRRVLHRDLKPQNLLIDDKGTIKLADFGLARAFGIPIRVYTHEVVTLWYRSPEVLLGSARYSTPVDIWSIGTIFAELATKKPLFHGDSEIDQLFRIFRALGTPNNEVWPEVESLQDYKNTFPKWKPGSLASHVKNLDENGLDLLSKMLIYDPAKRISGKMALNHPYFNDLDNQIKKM
CDK1/cyclin B, sequence (P14635 whole entry partner, species assumed): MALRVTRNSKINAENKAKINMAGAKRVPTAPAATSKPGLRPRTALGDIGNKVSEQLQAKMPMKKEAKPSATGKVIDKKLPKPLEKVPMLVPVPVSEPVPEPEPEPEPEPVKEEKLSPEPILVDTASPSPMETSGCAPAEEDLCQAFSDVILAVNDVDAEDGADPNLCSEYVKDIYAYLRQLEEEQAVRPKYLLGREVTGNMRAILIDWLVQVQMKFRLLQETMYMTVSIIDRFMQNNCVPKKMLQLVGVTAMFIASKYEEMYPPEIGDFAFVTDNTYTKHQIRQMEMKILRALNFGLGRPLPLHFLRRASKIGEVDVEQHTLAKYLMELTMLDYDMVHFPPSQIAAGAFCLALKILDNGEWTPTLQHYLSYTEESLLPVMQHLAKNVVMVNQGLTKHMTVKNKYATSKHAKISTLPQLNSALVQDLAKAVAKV
Description: A 384-well microtiter IMAP-FPT™ (Molecular Devices Trade Mark Technology) endpoint assay was used for CDK1/cyclin B kinase activity measurements. The same assay was used for IC50 determination of small molecule inhibitors.

CDK2/cyclin A = CDK2/cyclin A (Homo sapiens (Human), UniProt P24941); experiment: CDK2/Cyclin A enzymatic activity assay (IMAP-FP); conditions: Table 2; read-out: CDK2

CDK4/cyclin D1, sequence (P11802 whole entry): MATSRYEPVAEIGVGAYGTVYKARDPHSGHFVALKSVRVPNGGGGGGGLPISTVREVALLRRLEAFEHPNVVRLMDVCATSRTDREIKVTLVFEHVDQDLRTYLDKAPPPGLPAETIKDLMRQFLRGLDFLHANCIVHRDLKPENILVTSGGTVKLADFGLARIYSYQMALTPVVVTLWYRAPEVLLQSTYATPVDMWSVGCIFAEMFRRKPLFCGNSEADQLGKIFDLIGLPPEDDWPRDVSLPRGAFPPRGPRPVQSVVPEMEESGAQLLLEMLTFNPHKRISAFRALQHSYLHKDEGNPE
CDK4/cyclin D1, sequence (P24385 whole entry partner): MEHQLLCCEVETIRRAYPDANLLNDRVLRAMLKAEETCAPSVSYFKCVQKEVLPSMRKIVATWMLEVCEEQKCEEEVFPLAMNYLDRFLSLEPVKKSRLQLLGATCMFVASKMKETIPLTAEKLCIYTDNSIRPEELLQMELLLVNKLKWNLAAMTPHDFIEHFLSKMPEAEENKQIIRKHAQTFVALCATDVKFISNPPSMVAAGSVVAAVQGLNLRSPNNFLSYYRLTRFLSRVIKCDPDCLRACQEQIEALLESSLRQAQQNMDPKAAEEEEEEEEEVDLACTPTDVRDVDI

Structure (SMILES)	IC50 (CDK4/cyclin D1)	IC50 (CDK1/cyclin B)	IC50 (CDK2/cyclin A)
CN(C)C1CCN(c2ccc(Nc3ncc4cc(C#N)n(C5CCCC5)c4n3)nc2)CC1 [Example 47, 7-Cyclopentyl-2-((4-dimethylaminopiperidin)-1-yl-pyridin-2-ylamino)-7H-pyrrolo[2,3-d]pyrimidine-6-carbonitrile]	1 to 10 nM	2600 nM	8300 nM
CN(C)C(=O)c1cc2cnc(Nc3ccc(N4CCN(CC(N)=O)CC4)cn3)nc2n1C1CCCC1 [Example 10, 2-[5-(4-Carbamoylmethyl-piperazin-1-yl)-pyridin-2-ylamino]-7-cyclopentyl-7H-pyrrolo[2,3-d]pyrimidine-6-carboxylic acid dimethylamide]	10 to 100 nM	> 15000 nM	> 15000 nM
COC(=O)C(C)N1CCN(c2ccc(Nc3ncc4cc(C(=O)N(C)C)n(C5CCCC5)c4n3)nc2)CC1 (stereo not drawn) [Example 101, 2-{4-[6-(7-Cyclopentyl-6-dimethylcarbamoyl-7H-pyrrolo[2,3-d]pyrimidin-2-ylamino)-pyridin-3-yl]-piperazin-1-yl}-propionic acid methyl ester]	100 to 1000 nM	> 15000 nM	> 15000 nM
CN(C)C(=O)c1cc2cnc(Nc3ccc(C(=O)N4CCN(CCO)CC4)cn3)nc2n1C1CCCC1 [Example 96, 7-Cyclopentyl-2-{5-[4-(2-hydroxy-ethyl)-piperazine-1-carbonyl]-pyridin-2-ylamino}-7H-pyrrolo[2,3-d]pyrimidine-6-carboxylic acid dimethylamide]	10 to 100 nM	> 15000 nM	> 15000 nM
CN(C)C(=O)c1cc2cnc(Nc3ccc(N(C)CCO)cn3)nc2n1C1CCCC1 [Example 83, 7-Cyclopentyl-2-{5-[(2-hydroxy-ethyl)-methyl-amino]-pyridin-2-ylamino}-7H-pyrrolo[2,3-d]pyrimidine-6-carboxylic acid dimethylamide]	100 to 1000 nM	> 15000 nM	> 15000 nM
CN(C)C(=O)c1cc2cnc(Nc3ccc(C(=O)N4CCC(N(C)C)CC4)cn3)nc2n1C1CCCC1 [Example 50, 7-Cyclopentyl-2-[5-(4-dimethylamino-piperidine-1-carbonyl)-pyridin-2-ylamino]-7H-pyrrolo[2,3-d]pyrimidine-6-carboxylic acid dimethylamide]	10 to 100 nM	> 15000 nM	> 15000 nM
CN(C)C(=O)c1cc2cnc(Nc3ccc(N4CCN(CCF)CC4)cn3)nc2n1C1CCCC1 [Example 86, 7-Cyclopentyl-2-{5-[4-(2-fluoro-ethyl)-piperazin-1-yl]-pyridin-2-ylamino}-7H-pyrrolo[2,3-d]pyrimidine-6-carboxylic acid dimethylamide]	10 to 100 nM	> 15000 nM	> 15000 nM
CN(C)C(=O)c1cc2cnc(Nc3ccc(N4CCN(C(=O)N5CCOCC5)CC4)cn3)nc2n1C1CCCC1 [Example 38, 7-Cyclopentyl-2-{5-[4-(morpholine-4-carbonyl)-piperazin-1-yl]-pyridin-2-ylamino}-7H-pyrrolo[2,3-d]pyrimidine-6-carboxylic acid dimethylamide]	10 to 100 nM	> 15000 nM	> 15000 nM
CN(C)C(=O)c1cc2cnc(Nc3cnc(N4CCNCC4)cn3)nc2n1C1CCCC1 [Example 48, 7-Cyclopentyl-2-(3,4,5,6-tetrahydro-2-[1,2′]bipyrazinyl-5′-ylamino)-7H-pyrrolo[2,3-d]pyrimidine-6-carboxylic acid dimethylamide]	100 to 1000 nM	> 15000 nM	> 15000 nM
CN(C)C(=O)c1cc2cnc(Nc3ccc(N4CCN(CC#N)CC4)cn3)nc2n1C1CCCC1 [Example 84, 2-[5-(4-Cyanomethyl-piperazin-1-yl)-pyridin-2-ylamino]-7-cyclopentyl-7H-pyrrolo[2,3-d]pyrimidine-6-carboxylic acid dimethylamide]	10 to 100 nM	> 15000 nM	> 15000 nM

The remaining lines, values ahead:

IC50 (CDK4/cyclin D1)	IC50 (CDK1/cyclin B)	IC50 (CDK2/cyclin A)	Structure (SMILES)
10 to 100 nM	14000 nM	8000 nM	CN(C)C(=O)c1cc2cnc(Nc3ccc(N4CCCNCC4)cn3)nc2n1C1CCCC1 [Example 8, 7-Cyclopentyl-2-(5-[1,4]diazepan-1-yl-pyridin-2-ylamino)-7H-pyrrolo[2,3-d]pyrimidine-6-carboxylic acid dimethylamide]
10 to 100 nM	> 15000 nM	> 15000 nM	CN(C)C(=O)c1cc2cnc(Nc3ccc(N4CCN(C(=O)CC5CCCCC5)CC4)cn3)nc2n1C1CCCC1 [Example 90, 2-{5-[4-(2-Cyclohexyl-acetyl)-piperazin-1-yl]-7H-pyridin-2-ylamino}-7-cyclopentyl-7H-pyrrolo[2,3-d]pyrimidine-6-carboxylic acid dimethylamide]
10 to 100 nM	> 15000 nM	> 15000 nM	CC1CN(Cc2ccc(Nc3ncc4cc(C(=O)N(C)C)n(C5CCCC5)c4n3)nc2)CCN1 (stereo not drawn) [Example 54, 7-Cyclopentyl-2-[5-(3-methyl-piperazin-1-ylmethyl)-pyridin-2-ylamino]-7H-pyrrolo[2,3-d]pyrimidine-6-carboxylic acid dimethylamide]
10 to 100 nM	> 15000 nM	> 15000 nM	CN(C)C(=O)c1cc2cnc(Nc3ccc(CN4CCC(O)CC4)cn3)nc2n1C1CCCC1 [Example 76, 7-Cyclopentyl-2-[5-(4-hydroxy-piperidin-1-ylmethyl)-pyridin-2-ylamino]-7H-pyrrolo[2,3-d]pyrimidine-6-carboxylic acid dimethylamide]
10 to 100 nM	> 15000 nM	> 15000 nM	CC(CO)N1CCN(c2ccc(Nc3ncc4cc(C(=O)N(C)C)n(C5CCCC5)c4n3)nc2)CC1 (stereo not drawn) [Example 36, 7-Cyclopentyl-2-{5-[4-(2-hydroxy-1-methyl-ethyl)-piperazin-1-yl]-pyridin-2-ylamino}-7H-pyrrolo[2,3-d]pyrimidine-6-carboxylic acid dimethylamide]
10 to 100 nM	> 15000 nM	> 15000 nM	C[C@@H]1CN(c2ccc(Nc3ncc4cc(C(=O)N(C)C)n(C5CCCC5)c4n3)nc2)CCN1CCO [Example 81, 7-Cyclopentyl-2-{5-[(R)-4-(2-hydroxy-ethyl)-3-methyl-piperazin-1-yl]-pyridin-2-ylamino}-7H-pyrrolo[2,3-d]pyrimidine-6-carboxylic acid dimethylamide]
1 to 10 nM	> 15000 nM	> 15000 nM	CN(C)C(=O)c1cc2cnc(Nc3ccc(N4CCN(CCCO)CC4)cn3)nc2n1C1CCCC1 [Example 21, 7-Cyclopentyl-2-{5-[4-(3-hydroxy-propyl)-piperazin-1-yl]-pyridin-2-ylamino}-7H-pyrrolo[2,3-d]pyrimidine-6-carboxylic acid dimethylamide]
10 to 100 nM	13000 nM	> 15000 nM	CN(C)C(=O)c1cc2cnc(Nc3ccc(C(=O)N4CCC(O)CC4)cn3)nc2n1C1CCCC1 [Example 87, 7-Cyclopentyl-2-[5-(4-hydroxy-piperidine-1-carbonyl)-pyridin-2-ylamino]-7H-pyrrolo[2,3-d]pyrimidine-6-carboxylic acid dimethylamide]
10 to 100 nM	4700 nM	2900 nM	CN(C)C(=O)c1cc2cnc(Nc3ccc(N4CCC(CCO)CC4)cn3)nc2n1C1CCCC1 [Example 35, 7-Cyclopentyl-2-[4-(2-hydroxy-ethyl)-3,4,5,6-tetrahydro-2H-[1,3′]bipyridinyl-6′-ylamino]-7H-pyrrolo[2,3-d]pyrimidine-6-carboxylic acid dimethylamide]
